ChEMBL document CHEMBL1128795, “N-(Quinuclidin-3-yl)-2-(1-methyl-1H-indol-3-yl)-2-oxo-acetamide: a high affinity 5-HT3 receptor partial agonist” (Bioorg Med Chem Lett, 1995)

Assays:
Assay type in all cases: functional
Rattus norvegicus [1] = organism: Rattus norvegicus; experiment: Tested for effective concentration against 5-HT mediated depolarization of isolated rat vagus nerve
[2] = molecular target: T1, Serotonin 3 (5-HT3) receptor (Rattus norvegicus) (UniProt P35563+Q9JJ16); experiment: Tested for % decrease in heart rate relative to pre-dose control against 2-methyl-5-HT induced bradycardia (von Bezold-Jarisch (B-J) reflex) in anesthetized rats; set-up: scale not given: the % may be the effect or the level left
[3] = molecular target: T1, Serotonin 3 (5-HT3) receptor (Rattus norvegicus); experiment: Agonist activity against 2-methyl-5-HT induced bradycardia (von Bezold-Jarisch (B-J) reflex) in anesthetized rats
Rattus norvegicus [4] = organism: Rattus norvegicus; experiment: Tested for maximum response in depolarization of isolated rat vagus nerve measured at dose 10 uM

Cc1[nH]c2ccc(O)cc2c1CCN
EC50 (Rattus norvegicus [1]): 6.17 µM
Control [2]: 58%
ED50 [3]: 7.7 µg/kg
Max response (Rattus norvegicus [4]): 363 uV

NCCc1c[nH]c2ccc(O)cc12 [SEROTONIN]
EC50 (Rattus norvegicus [1]): 0.977 µM
Max response (Rattus norvegicus [4]): 340 uV
